Reference: a melting point compilation (Tetko et al.)

SMILES	melting point
O=S(=O)(c1ccc(F)cc1)N1CCNCC1	112 to 114 °C
CN(C)C=CC(=O)C(F)(F)F	52 to 54 °C
COC(=O)C(CCl)NC(C)=O (configuration not stated)	74 to 76 °C
Cc1ccc(SCCC(=O)NN)cc1	106 to 108 °C
O=C(O)c1ccccc1OCc1ccc(Cl)cc1	85 to 87 °C
COc1ccc(C(=O)O)cc1S(=O)(=O)N1CCCCCC1	190 to 194 °C
CN1CCN(C(=O)c2ccc(Br)cc2)CC1	81 to 83 °C
NC(Cc1cccs1)=NO	79 to 82 °C
OCc1nnc(Cl)s1	51 to 53 °C
COc1c(Cl)cc(Br)cc1S(N)(=O)=O	214 to 216 °C
CC(=O)CC(=O)Nc1cccc(C)c1C	91 to 93 °C
Cc1cc(C)c(C(=O)O)c(N)c1	103 to 105 °C
C=CC(CC(=O)O)c1ccccc1 (configuration not stated)	39 to 41 °C
Nc1ccccc1C(=O)N1CCCC1	85 to 89 °C
Cc1ccc(-c2nn(-c3ccccc3)cc2CO)cc1C	134 to 136 °C
O=C1CC2(CCOC2)CN1 (configuration not stated)	63 to 65 °C
CC1=NN(C)C(=O)C1C (configuration not stated)	132 to 134 °C
COC(=O)c1ccc(-n2c(C)cc(C(=O)CCl)c2C)cc1	157 to 159 °C
CC(SCc1nc2ccccc2c(=O)[nH]1)C(=O)O (configuration not stated)	204 to 206 °C
O=C1CC2(CCCC2)CN1	68 to 70 °C
Nc1cc(Br)ccc1[N+](=O)[O-]	143 to 145 °C
COc1ccc(C(=O)c2ccc(F)cc2)cc1	90 to 92 °C
Cn1cc(C(=O)NC2CCNCC2)cn1	204 to 206 °C
Nc1ccn(Cc2cccc3cccnc23)n1	120 to 122 °C

SMILES	melting point
NC(=O)c1ccc(Cl)cc1N	179 to 181 °C
CSc1cc(C(=O)O)ccc1F	189 to 191 °C
CN(c1ccc(O)cc1)S(=O)(=O)c1cccs1	149 to 151 °C
O=C(O)c1ccc(-n2cccn2)nc1	267 to 269 °C
O=C(O)c1cc(/C=C/c2ccc(Br)cc2)nc2ccc(Br)cc12	309 to 311 °C
CN1C(=O)CCC(C(N)=O)C1c1cccc(Cl)c1 (configuration not stated)	215 to 217 °C
Cc1cc(C(C#N)c2ccc(Cl)cc2)c(Cl)cc1N (configuration not stated)	147 to 153 °C
COc1cc(C=O)c(SC)cc1OC	111 to 113 °C
CCCN1CCc2c(sc(N)c2C(=O)OCC)C1	69 to 73 °C
O=C(CCCl)Nc1cc([N+](=O)[O-])ccc1F	84 to 86 °C
NCc1ccc(N2CCN(c3ccccc3)CC2)nc1	111 to 113 °C
Cc1ccc2nc(-c3cccc(C)c3O)[nH]c2c1	244 to 246 °C
Cc1ccc(C#N)nc1Br	130 to 132 °C
O=C(O)C1CC1C(=O)N1CCN(c2ccccc2)CC1 (configuration not stated)	155 to 157 °C
O=Cc1csc(-c2cccc(Br)c2)n1	99 to 101 °C
COC(=O)c1oc(CCl)cc1C	53 to 55 °C
CC(C)(C)n1ccnc1S	192 to 194 °C
CN1C(=O)CC(C(=O)O)C1c1ccc(Cl)c(F)c1 (configuration not stated)	225 to 227 °C
CC(C)(C)NC(=O)Cc1ccc(N)cc1	113 to 115 °C
O=C(O)c1cccc(NC(=O)C2CCCCC2)c1	228 to 230 °C
O=C(O)c1ccc(CNC(=O)c2cccs2)cc1	209 to 211 °C
O=C(O)Cc1cnc2ccccc2c1	201 to 203 °C
Sc1nnc(-c2cccnc2)n1Cc1ccco1	117 to 119 °C
O=C(O)c1cc2ccc(OC(F)(F)F)cc2[nH]1	160 to 162 °C

SMILES	melting point
O=C1NCCN1c1ccccc1[N+](=O)[O-]	153 to 155 °C
CCc1n[nH]c(=O)c(C(=O)O)c1CC	154 to 156 °C
CCCOc1ccc(Br)cc1C=O	47 to 49 °C
O=S(=O)(Nc1nc2ccccc2nc1Cl)c1ccc(F)cc1	181 to 183 °C
Cc1cc(Br)cc(C)c1NC(=O)CCCCl	139 to 141 °C
Nc1cccc2oc(C(F)(F)F)nc12	49 to 51 °C
Cc1cc(C)cc(-n2c(C)cc(C(=O)O)c2C)c1	169 to 171 °C
Cc1nccc(N)c1Cl	110 to 112 °C
CCc1sc(N)nc1-c1ccc(OC)cc1	112 to 114 °C
CCN(CC)S(=O)(=O)c1ccc(C=CC(=O)O)cc1	184 to 186 °C
Cc1ccc2c(CCN)c[nH]c2c1	139 to 141 °C
CCCc1c(C(=O)O)nnn1-c1cccc(Cl)c1	129 to 131 °C
CCc1cc(Cl)nc(-c2ccccn2)n1	79 to 81 °C
Nc1ccc(O)cc1C(=O)NCc1ccccc1	154 to 156 °C
O=S(=O)(c1ccc(Cl)nc1)N(Cc1ccccc1)Cc1ccccc1	106 to 108 °C
CCOCCN1C(=O)C(=O)c2ccccc21	65 to 67 °C
Oc1cc(Cl)cnc1Br	144 to 146 °C
OCCSc1ccnc2cc(Cl)ccc12	111 to 113 °C
COc1ccc(Cl)cc1NS(=O)(=O)c1cccc(C(=O)O)c1	155 to 157 °C
NS(=O)(=O)c1ccc(C(=O)O)cc1Cl	231 to 233 °C
COc1ccccc1-n1cc(S(=O)(=O)Cl)cn1	68 to 70 °C
Brc1nnc(Br)s1	104 to 106 °C
CCS(=O)(=O)Nc1ccc(S(=O)(=O)Cl)c(C)c1	82 to 84 °C
NS(=O)(=O)c1ccc(C(=O)O)s1	229 to 231 °C
